Results as given in US7985536B2, “Method for regulating NO production in an isolated organ or tissue during warm perfusion” (priority 1999, dated 2011).
Several values for one entry are separate records, joined by “and”; a condition that tells them apart may be missing. Equal values may be shown once.

Tests used:
[1] = system: canine kidneys; test: CoPP in the perfusate during EMS perfusion: kidney metabolism and function
Experimental: (§1) Test group (n=3) canine kidneys were excised, cannulated, flushed of blood with EMS perfusion solution and placed on EMS perfusion at 32° C.-34° C. for 6 hours with either 5, 25 or 50 uM cobalt protoporphyrin (CoPP) added to the perfusate. Metabolic and functional evaluations consisted of quantification of the ex vivo kidney function during the period of HO-1 induction. Using the EMS technology, kidneys were maintained in a metabolically active state by perfusion at near physiologic temperature. Kidneys weighing approximately 70-90 gm were procured following brain death with concomitant warm ischemia of no more than 15 minutes. The kidneys were then transitioned to EMS perfusion at 32° C. to 34° C. The kidneys were evaluated for oxidative metabolism, vascular dynamics and organ function. The organ parameters were allowed to stabilize for one hour prior to the evaluation of function. Samples from the arterial and venous lines were collected, along with the urine produced during the perfusions. PO2 measurements for the arterial and venous samples were made with a Radiometer ABL5.
Oxygen consumption was calculated as: ml/min/gm=(PO2 artery−PO2 venous)×(flow rate).
The vascular resistance was calculated as: vasc resis=mean arterial pressure/mean flow rate
Creatinine was added to the perfusate as a tracer. The urine made during the EMS perfusions at 32° C. to 34° C. was collected and tested. The concentration of creatinine was measured on an IDEXX Vet Lab chemistry analyzer and the glomerular filtration rate (GFR) was calculated as: […]

[2] = system: canine kidneys; test: as above; conditions: for F.R. (vascular flow rate) / GFR (glomerular filtration rate) / MAP (mean arterial pressure) / Urinary Protein / Urine Flow / Vasc Res (vascular resistance) / 02 Cons (oxygen consumption): n = 2, mean
[3] = system: hemeoxygenase-1 (HO-1); test: Up-regulation of hemeoxygenase-1 by CoPP during EMS perfusion; design: species or system canine; conditions: individual kidneys
Experimental: EMS perfusion can be used to deliver a drug to an organ, section of anatomy or tissue in a targeted fashion. In addition, during any procedure the EMS supported ongoing metabolism and function can be monitored providing a mechanism to quantify the impact of the drug and any corresponding cellular response to it. For example, a compound known to cause the up-regulation of the heat-shock protein, hemeoxygenase-1 was administered to an isolated kidney being perfused in accordance with the technology of the present invention. The EMS technology provided adequate support of renal metabolism and function during ex vivo perfusion to increase expression of the hemeoxygenase-1 (HO-1) enzyme within six hours.
as §1, with “Metabolic” for “Test group (n=3) canine kidneys were excised, cannulated, flushed of blood with EMS perfusion solution and placed on EMS perfusion at 32° C.-34° C. for 6 hours with either 5, 25 or 50 uM cobalt protoporphyrin (CoPP) added to the perfusate. Metabolic”

[4] = system: canine kidneys; test: Regulation of NO flux by titrating L-arginine (nitrite, electrochemical detection)
Experimental: It is desirable to control the flux of NO in tissues, limbs and organs while they are deprived of physiologic blood flow. In certain clinical situations such as the case of septic shock it may be necessary to inhibit the production of NO. Therefore, the ability to regulate the production of NO was evaluated using the solution and process of the present invention. The production of NO was monitored using electrochemical detection using a carbon-modified anode in stream. Oxidation of NO transfers electrons from NO to the anode generating nitrosonium cation that is converted to nitrite as follows: NO→NO+→HONO→NO2^− Canine kidneys were perfused with the solution of the invention without L-arginine. The substrate L-arginine was added to the perfusion path separately to measure the ability to control NO production.
Controls consisted of kidneys perfused with L-Name to inhibit NOS function and kidneys perfused with the solution and process of the present invention but without L-arginine.

[5] = system: kidneys; test: In situ kidney perfusion during operative procedure, serum creatinine 24 hours posttreatment; format: in vivo; conditions: six hours in situ acellular perfusion, n = 2, L-NAME 100 uM
Excerpt: The ability to control NOS function during in situ perfusion was observed by placement of cannulas in the aorta above the renal arteries and in the vena cava below the renal veins. In this manner, the renal vasculature could be isolated from vascular blood flow during surgical procedures repairing aortic aneurysm. The kidneys were perfused with the solution of the present invention by opening the perfusion circuit until the blood was flushed from the kidneys. The circuit was then closed and the kidneys perfused acellularly until the end of the surgical procedure and reflow of blood was restored. The cannulas were removed, the incision in the aorta and vena cava closed and blood flow reinstated. During six hours of acellular perfusion the concentration of NO3-was determined every 2 hours and the concentration of L-arginine was adjusted to control the NO flux around the set range using the method described above. Following reperfusion with vascular blood flow, the renal function was evaluated 24 hours posttreatment by determining the serum creatinine (SCR) concentration. Controls consisted of kidneys perfused without L-arginine and kidneys perfused with the addition of L-NAME (100 uM).

[6] = system: isolated canine kidneys; test: Nitric oxide flux in isolated canine kidneys, 48 hour perfusion; conditions: for mean NO3 accumulation in the perfusion solution: following 48 hours, ion chromatograph, mean±standard deviation; for net weight gain (edema): isolated canine kidneys, L-NAME and L-NIL 100 μM added to the perfusion solution
Experimental: Kidneys were perfused with the perfusion solution and process described above for 48 hours.
The concentration of nitrate in the solution was determined by analysis on a Dionex DX-500 ion chromatograph using an AS-15 column and KOH eluant that varied in concentration by a programmed gradient. Alternatively, an electrode can be utilized to monitor NO flux in stream. All samples were analyzed in duplicate and were diluted by a factor of 11 and the values expressed as the mean±standard deviation for the kidneys perfused with the solution of the invention or control kidneys perfused with RPMI medium.

[7] = system: iNOS; conditions: cited from earlier work
[8] = system: kidneys; test: Control of NO3 production around a target during 48 hours perfusion
Experimental: Kidneys were perfused for 48 hours and during the perfusion the kidneys were monitored every 4 hours for the concentration of NO3^− in the circulation. Alternatively, NO concentration can be evaluated by measuring NO directly using an electrode or by measurement of the decrease in concentration of the substrate such as L-arginine. […] The perfusate was exchanged at the rate of 20% v/v every 4 hours with the concentration of L-arginine varying to control the production of NO.

[9] = system: human kidneys; test: Vasodilation in human kidneys perfused ex vivo, 12 hours
Experimental: Human kidneys were perfused ex vivo in order to evaluate the continued function of NOS in the formation of a continual flux of NO. • Group 1—Kidneys perfused with the solution and process of the invention, n=2 • Group 2—Kidneys perfused with heparinized blood with the pharmacologic agent, nitroprusside added at doses of 1.0, 10.0 and 100.0 mg, n=2
The ability to vasodilate and sustain stable perfusion pressures was determined in both groups during 12 hours of ex vivo perfusion.

[10] = system: canine kidneys; test: Endothelial-dependent vasodilation by acetylcholine in perfused canine kidneys; conditions: acetylcholine 1.0 mg; kidneys perfused with the solution of the invention
Experimental: Canine kidneys were tested for the ability to produce NO by induction with acetylcholine at a concentration of 1.0, 10.0 or 100 mg. The acetylcholine was administered to the perfusion path of kidneys using the solution and process of this invention and also in control kidneys that were perfused with RPMI medium alone.

[11] = system: canine kidneys; test: Nitrate accumulation and acetylcholine vasodilation after 30 minutes warm ischemia and 18 hours perfusion; conditions: One mg of acetylcholine

## C=CC1=C(C)c2cc3[n-]c(cc4nc(cc5[n-]c(cc1n2)c(C)c5CCC(=O)[O-])C(CCC(=O)[O-])=C4C)c(C)c3C=C.[Co+2].[H+].[H+] [CoPP, cobalt protoporphyrin]
[1]; CoPP 50 μM
  inhibition of the GFR: 91%
[1]; CoPP increased from 5 to 25 μM
  reduction of urine flow: 66%
[1]; CoPP increased to 50 μM
  reduction of urine flow: > 90%
[2]; 5 uM CoPP
  F.R. (vascular flow rate): 114 cc/min
  GFR (glomerular filtration rate): 7.02 mL/min
  MAP (mean arterial pressure): 47 mmHg
  Urinary Protein: 0.16 gm/dL
  Urine Flow: 6 cc/hr
  Vasc Res (vascular resistance): 0.41
[2]; 5 uM CoPP, 6 hours EMS perfusion
  02 Cons (oxygen consumption): 0.18 cc/min/gm
[2]; 25 uM CoPP
  02 Cons (oxygen consumption): 0.23 cc/min/gm
  F.R. (vascular flow rate): 114 cc/min
  GFR (glomerular filtration rate): 2.05 mL/min
  MAP (mean arterial pressure): 47 mmHg
  Urinary Protein: 3.62 gm/dL
  Urine Flow: 2 cc/hr
  Vasc Res (vascular resistance): 0.41
[2]; 50 uM CoPP
  02 Cons (oxygen consumption): 0.17 cc/min/gm
  F.R. (vascular flow rate): 108 cc/min
  GFR (glomerular filtration rate): 0.6 mL/min
  MAP (mean arterial pressure): 48 mmHg
  Urinary Protein: 3.44 gm/dL
  Urine Flow: 0.5 cc/hr
  Vasc Res (vascular resistance): 0.44
[2]; CoPP increased from 5 to 25 μM
  reduction of GFR: 71%
[3]; 5 μM CoPP
  Hemeoxygenase-1, CoPP induction during EMS perfusion: 9.6 IU and 13.2 IU
[3]; 10 μM CoPP
  Hemeoxygenase-1, CoPP induction during EMS perfusion: 16.3 IU and 13.4 IU
[3]; 25 μM CoPP
  Hemeoxygenase-1, CoPP induction during EMS perfusion: 16.1 IU and 16.7 IU
[3]; 50 μM CoPP
  Hemeoxygenase-1, CoPP induction during EMS perfusion: 15.2 IU and 14.7 IU

## COC(=O)[C@@H](N)CCCNC(=N)N[N+](=O)[O-] [L-NAME, N^6-nitro-L-arginine methyl ester]
[4]; Control, kidneys perfused with L-Name
  NO2: 0.17 ± 0.3 mg/dL
[5]
  SCr: 4.2 mg/dL
[6]
  mean NO3 accumulation in the perfusion solution: 0.16 ± 0.1 mg/L
  net weight gain (edema): 350%

## CC(=N)NCCCC[C@H](N)C(=O)O.Cl [L-NIL]
[7]
  selectivity for iNOS in comparison to the constitutive endothelial NOS isoform: approximately 28 fold
[6]
  mean NO3 accumulation in the perfusion solution: 0.51 ± 0.2 mg/L
  net weight gain (edema): 206%

## N=C(N)NCCC[C@H](N)C(=O)O [L-arginine]
[4]; L-arginine 18 mg, n = 3
  NO2: 1.2 ± 0.1 mg/dL
[4]; L-arginine 35 mg, n = 3
  NO2: 3.1 ± 0.1 mg/dL
[4]; L-arginine 70 mg, n = 3
  NO2: 5.8 ± 0.3 mg/dL
[4]; L-arginine 140 mg, n = 3
  NO2: 11.2 ± 0.5 mg/dL
[8]; perfusion time 4 hours, target 200 ug/L/hr+/−10
  NO3: 203 µg/L/h
[8]; perfusion time 8 hours
  NO3: 180 µg/L/h
[8]; perfusion time 12 hours
  NO3: 205 µg/L/h
[8]; perfusion time 16 hours
  NO3: 195 µg/L/h
[8]; perfusion time 20 hours
  NO3: 201 µg/L/h
[8]; perfusion time 24 hours
  NO3: 210 µg/L/h
[8]; perfusion time 28 hours
  NO3: 195 µg/L/h
[8]; perfusion time 32 hours
  NO3: 202 µg/L/h
[8]; perfusion time 36 hours
  NO3: 210 µg/L/h
[8]; perfusion time 40 hours
  NO3: 190 µg/L/h
[8]; perfusion time 44 hours
  NO3: 203 µg/L/h
[8]; perfusion time 48 hours
  NO3: 209 µg/L/h

## CC(=O)OCC[N+](C)(C)C [acetylcholine]
[9]; acetylcholine 1.0 mg, Group 1
  decreased perfusion pressure: 8 mmHg
  vascular flow rate after vasodilation: > 150 cc/min
[10]
  mean drop in systolic pressures: 20 mmHg
  time to vasodilation after administration: ≤ 5 min
[11]; Group 1
  time to decrease in mean arterial pressure: ≤ 5 min
[11]; Group 1, perfusion with the solution of the invention
  decrease in mean arterial pressure: 10 mmHg

## C[C@@H]1C[C@H]2[C@@H]3CCC4=CC(=O)C=C[C@]4(C)[C@@]3(F)[C@@H](O)C[C@]2(C)[C@@]1(O)C(=O)CO [dexamethasone]
[6]
  mean NO3 accumulation in the perfusion solution: 0.18 ± 0.1 mg/L

## nitroprusside
[9]; nitroprusside 1.0 mg, heparinized blood perfusion
  decrease in the mean arterial pressures: did not lead to an appreciable decrease
[9]; nitroprusside 10.0 mg, heparinized blood perfusion
  decrease in the mean arterial pressures: 6 mmHg
[9]; nitroprusside 100 mg, excessive vascular flow associated with renal damage
  decrease in the mean arterial pressures: profound decrease
